Test results: PubChem BioAssay (NCI)
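How tested: cells in 96-well plates exposed to compound for 48 hours at five concentrations. TGI: concentration producing complete growth inhibition.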

Assays:
Assay in all cases: NCI tumour cell line growth inhibition, 48 h
COLO 205 colon = test system: COLO 205 colon
EKVX NSCLC = test system: EKVX NSCLC
KM12 colon = test system: KM12 colon
M14 melanoma = test system: M14 melanoma
MCF7 breast = test system: MCF7 breast
RPMI-8226 leukemia = test system: RPMI-8226 leukemia
SF-268 CNS = test system: SF-268 CNS
SN12C renal = test system: SN12C renal
UACC-257 melanoma = test system: UACC-257 melanoma
UACC-62 melanoma = test system: UACC-62 melanoma

| Compound | TGI (COLO 205 colon) [µM] | TGI (EKVX NSCLC) [µM] | TGI (KM12 colon) [µM] | TGI (M14 melanoma) [µM] | TGI (MCF7 breast) [µM] | TGI (RPMI-8226 leukemia) [µM] | TGI (SF-268 CNS) [µM] | TGI (SN12C renal) [µM] | TGI (UACC-257 melanoma) [µM] | TGI (UACC-62 melanoma) [µM] |
| --- | --- | --- | --- | --- | --- | --- | --- | --- | --- | --- |
| C=C(C(=O)OCC)C(=O)OCC | > 100 | > 100 | > 100 | > 100 | > 100 | > 100 | > 100 | > 100 | > 100 | > 100 |
| C/C(C[n+]1ccccc1)=N\N=C(N)N | > 100 | > 100 | > 100 | > 100 | > 100 | > 100 | > 100 | > 100 | > 100 | > 100 |
| CCOC(=O)c1cccc(N=Nc2nc[nH]c2/C=C/C(=O)OC)c1 | > 100 | > 100 | > 100 | 49.6 | > 100 | > 100 | > 100 | 68.1 | 60.4 | > 100 |
| COC(C)(C)C1(O)CC[C@@H](C)CC1=O (stereo not given in full) | > 100 | > 100 | > 100 | > 100 | > 100 | > 100 | > 100 | > 100 | > 100 | > 100 |
| COc1ccc(C(=O)/C=C/c2ccc(OCCCOc3ccc(/C=C/C(=O)c4ccc(OC)cc4)cc3)cc2)cc1 | > 100 | > 100 | > 100 | > 100 | > 100 | > 100 | > 100 | > 100 | > 100 | > 100 |
| Cc1c2cc[n+](C)c(C)c2cc2c1[nH]c1ccccc12 | 5.54 | 42.7 | 21.1 | > 100 | 70.1 | 73.5 | 5.6 | 8.54 | 65.8 | 48.8 |
| C[C@H](CCC(=O)O)[C@H]1CC[C@H]2[C@@H]3C(=O)C[C@@H]4C[C@H](O)CC[C@]4(C)[C@H]3C[C@H](O)[C@]12C | > 100 | > 100 | > 100 | > 100 | > 100 | > 100 | > 100 | > 100 | > 100 | > 100 |
| O=C(O)CCNc1ncnc2nc[nH]c12 | > 100 | > 100 | > 100 | > 100 | > 100 | > 100 | > 100 | > 100 | > 100 | > 100 |
| Cc1ccc(C2=CC(=O)OC(C[P+](c3ccccc3)(c3ccccc3)c3ccccc3)(c3ccccc3)O2)cc1 (stereo not given) | 28.3 | 30 | 34.3 | 32 | 56.6 | 46.1 | 38.2 | 57.7 | 30.8 | 30.5 |
| CC1(C)[C@@H]2CC[C@@]1(C)CN(CCC[N+](C)(C)C)C2 | > 100 | > 100 | > 100 | > 100 | > 100 | > 100 | > 100 | > 100 | > 100 | > 100 |
| COC(=O)C(Cc1ccc2c(c1)CCC2)Cc1ccc2c(c1)CCC2 | > 100 | > 100 | > 100 | > 100 | > 100 | > 100 | > 100 | > 100 | > 100 | > 100 |
| O=C(NCP(=O)(Oc1ccccc1)Oc1ccccc1)OCc1ccccc1 | > 100 | > 100 | > 100 | > 100 | > 100 | > 100 | > 100 | > 100 | > 100 | > 100 |
| O=C1NC(N2CCOCC2)=N/C1=C\c1ccco1 | > 100 | > 100 | > 100 | > 100 | > 100 | > 100 | > 100 | > 100 | > 100 | > 100 |
| COc1ccc(C2OC(c3ccncc3)=NN2C)cc1F (stereo not given) | > 100 | > 100 | > 100 | > 100 | > 100 | > 100 | > 100 | > 100 | > 100 | > 100 |
| O=C(/C=C/c1ccccc1)Oc1ccc(C(=O)/C=C/c2ccccc2)cc1 | 21 | 22 | 15.9 | 23.3 | > 31.6 | 15.4 | 18.3 | 15.2 | 20.3 | 17.7 |
| CC(C)SC(=S)Sc1c(Cl)c(Cl)nc(Cl)c1Cl | 24.7 | 22.8 | 21.4 | 26.7 | 15.7 | 4.29 | 32.9 | 27.6 | 9.57 | 24.1 |
| CCCCCCCCCCCC[S+](C)C | 5.15 | 20.2 | 14.3 | 19.9 | 24.5 | 28.4 | 20.2 | 15.3 | 17.4 | 21.9 |
| O=C1NC2c3c(I)sc(I)c3C(O)C2O1 (stereo not given) | > 100 | > 100 | > 100 | > 100 | > 100 | > 100 | > 100 | > 100 | > 100 | > 100 |
